In PubChem BioAssay (NCI):
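Compound exposure: 48 hours, 5 concentrations, 96-well plates. TGI: concentration producing complete growth inhibition.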

Tested on: DMS 114 small cell lung
Test: NCI anticancer screen, dose series, 48 h

With `O=C1CC2CC3OC3[C@H]3c4cc5c(cc4C(=O)N1C23)OCO5` (stereo partly specified) the TGI was > 100 µM.
